The record followed here is BindingDB's records for doi:10.1021/jm960510x (University of Camerino, 1996).

This test deals with Alpha-1B adrenergic receptor (Mesocricetus auratus) (UniProt P18841). The test is described as follows: Compound was tested for binding affinity against cloned Alpha-1B adrenergic receptor from hamster smooth muscle using radioligand ([3H]prazosin) binding assay.

Structures are written as SMILES.

Chain of Alpha-1B adrenergic receptor (Mesocricetus auratus) (P18841 whole entry, looked up): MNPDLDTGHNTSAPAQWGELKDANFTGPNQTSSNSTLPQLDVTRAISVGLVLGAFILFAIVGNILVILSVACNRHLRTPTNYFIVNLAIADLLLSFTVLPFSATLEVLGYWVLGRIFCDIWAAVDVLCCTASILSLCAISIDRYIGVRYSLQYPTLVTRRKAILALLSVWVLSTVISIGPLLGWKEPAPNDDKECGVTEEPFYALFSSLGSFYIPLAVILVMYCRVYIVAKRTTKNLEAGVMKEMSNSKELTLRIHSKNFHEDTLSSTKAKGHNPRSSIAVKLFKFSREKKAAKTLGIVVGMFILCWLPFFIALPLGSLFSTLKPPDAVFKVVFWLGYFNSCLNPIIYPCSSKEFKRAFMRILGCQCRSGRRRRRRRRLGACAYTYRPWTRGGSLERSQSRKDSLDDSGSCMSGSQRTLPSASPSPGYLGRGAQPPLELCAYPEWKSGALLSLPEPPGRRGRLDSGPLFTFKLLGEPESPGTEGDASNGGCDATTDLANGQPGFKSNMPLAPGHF

Compound `COc1cc2nc(N3CCN(C(=O)c4ccco4)[C@@H]4CCCC[C@@H]43)nc(N)c2cc1OC` displayed a Ki of 0.692 nM. In turn, `COc1cc2nc(N3CCN(C(=O)c4ccco4)C4CCCCC43)nc(N)c2cc1OC` (stereo not drawn) [(Cyclazosin)[4-(4-Amino-6,7-dimethoxy-quinazolin-2-yl)-octahydro-quinoxalin-1-yl]-furan-2-yl-methanone] gave a Ki of 0.589 nM. As to `COc1cc2nc(N3CCN(C(=O)c4ccco4)[C@H]4CCCC[C@H]43)nc(N)c2cc1OC` [CYCLAZOSIN], the Ki came to 0.309 nM.
